A short description of data set [1]: Inhibition of EGFR L858R/T790M double mutant (unknown origin). Set-up: species or system Homo sapiens.
For data set [2], the target named is Epidermal growth factor receptor (Homo sapiens, UniProt P00533, C797S/L858R/T790M). As to the kind of experiment: Inhibition of EGFR L858R/T790M/C797S mutant (unknown origin).
The nature of data set [3]: Antiproliferative activity against mouse BaF3 cells harboring EGFR L858R/T790M double mutant assessed as inhibition of cell growth.
Data set [4] in a line: PROTAC activity at CRBN/EGFR L858R/T790M double mutant in human HCC827 cells assessed as induction of EGFR degradation. It counts as cell-based.
In data set [5] the target is von Hippel-Lindau disease tumor suppressor/Epidermal growth factor receptor (Homo sapiens, UniProt P00533+P40337, L858R). The data set can be described thus: PROTAC activity at VHL/EGFR L858R mutant in human NCI-H3255 cells assessed as induction of EGFR degradation incubated for 24 hrs by immunoblotting analysis. The data set is classed as cell-based. Background: A western blot detects proteins with antibodies after separation by electrophoresis.

The test system of data set [6] is BaF3. As to the kind of experiment: Antiproliferative activity against mouse BaF3 cells harboring EGFR C797S/T790M/del19 mutant assessed as growth inhibition incubated for 72 hrs by CellTiter-Glo assay. The data set is classed as functional, cell-based. The note with it: BaF3, 72 h. (ATP-based viability assays read luminescence as a measure of living cells.)
Data set [7] can be described thus: Oral bioavailability in rat. Particulars: in vivo.
Data set [8] in a line: Antiproliferative activity against human NCI-H1975 cells harboring EGFR L858R/T790M double mutant assessed as inhibition of cell growth incubated for 72 hrs by CellTiter-Glo assay. The data set is classed as functional, cell-based. The note with it: NCI-H1975, 72 h.
Data set [9] can be described thus: Antiproliferative activity against human NCI-H1975 cells harboring EGFR L858R/T790M/C797S […] mutant assessed as inhibition of cell growth. The data set is classed as functional, cell-based.
Data set [10] in a line: Intrinsic clearance in human hepatocytes. It counts as ADME, cell-based, Hepatocyte.
A short description of data set [11]: Intrinsic clearance in rat liver microsomes. It counts as ADME, Microsome. (Microsomes from liver hold many membrane-bound enzymes, among them those of drug oxidation.)
The nature of data set [12]: Intrinsic clearance in human liver microsomes. The data set is classed as ADME, Microsome.
Data set [13] has as its system BaF3. As to the kind of experiment: Antiproliferative activity against mouse BaF3 cells harboring EGFR L858R/T790M/C797S mutant assessed as growth inhibition incubated for 72 hrs by CellTiter-Glo assay. The data set is classed as functional, cell-based. The note with it: BaF3, 72 h.
Data set [14] addresses Epidermal growth factor receptor (Homo sapiens, UniProt P00533). As to the kind of experiment: Inhibition of wild type EGFR (unknown origin).
In data set [15] the target is Epidermal growth factor receptor (Homo sapiens, UniProt P00533, C797S/EX19DEL/T790M). The data set can be described thus: Inhibition of EGFR C797S/T790M/Del19 mutant (unknown origin).
Data set [16] relates to NCI-H1975. As to the kind of experiment: Antitumor activity against human NCI-H1975 cells xenografted in mouse model assessed as tumor growth inhibition at 40 mg/kg, po relative to control. It counts as functional. The note with it: read-out: TGI.
For data set [17], the system named is NCI-H1975. As to the kind of experiment: Antitumor activity against human NCI-H1975 cells xenografted in mouse model assessed as tumor growth inhibition at 80 mg/kg, po relative to control. Particulars: read-out: TGI. It counts as functional.

Chain of Epidermal growth factor receptor (Homo sapiens, UniProt P00533, C797S/EX19DEL/T790M) (P00533 whole entry, looked up, stated change not applied): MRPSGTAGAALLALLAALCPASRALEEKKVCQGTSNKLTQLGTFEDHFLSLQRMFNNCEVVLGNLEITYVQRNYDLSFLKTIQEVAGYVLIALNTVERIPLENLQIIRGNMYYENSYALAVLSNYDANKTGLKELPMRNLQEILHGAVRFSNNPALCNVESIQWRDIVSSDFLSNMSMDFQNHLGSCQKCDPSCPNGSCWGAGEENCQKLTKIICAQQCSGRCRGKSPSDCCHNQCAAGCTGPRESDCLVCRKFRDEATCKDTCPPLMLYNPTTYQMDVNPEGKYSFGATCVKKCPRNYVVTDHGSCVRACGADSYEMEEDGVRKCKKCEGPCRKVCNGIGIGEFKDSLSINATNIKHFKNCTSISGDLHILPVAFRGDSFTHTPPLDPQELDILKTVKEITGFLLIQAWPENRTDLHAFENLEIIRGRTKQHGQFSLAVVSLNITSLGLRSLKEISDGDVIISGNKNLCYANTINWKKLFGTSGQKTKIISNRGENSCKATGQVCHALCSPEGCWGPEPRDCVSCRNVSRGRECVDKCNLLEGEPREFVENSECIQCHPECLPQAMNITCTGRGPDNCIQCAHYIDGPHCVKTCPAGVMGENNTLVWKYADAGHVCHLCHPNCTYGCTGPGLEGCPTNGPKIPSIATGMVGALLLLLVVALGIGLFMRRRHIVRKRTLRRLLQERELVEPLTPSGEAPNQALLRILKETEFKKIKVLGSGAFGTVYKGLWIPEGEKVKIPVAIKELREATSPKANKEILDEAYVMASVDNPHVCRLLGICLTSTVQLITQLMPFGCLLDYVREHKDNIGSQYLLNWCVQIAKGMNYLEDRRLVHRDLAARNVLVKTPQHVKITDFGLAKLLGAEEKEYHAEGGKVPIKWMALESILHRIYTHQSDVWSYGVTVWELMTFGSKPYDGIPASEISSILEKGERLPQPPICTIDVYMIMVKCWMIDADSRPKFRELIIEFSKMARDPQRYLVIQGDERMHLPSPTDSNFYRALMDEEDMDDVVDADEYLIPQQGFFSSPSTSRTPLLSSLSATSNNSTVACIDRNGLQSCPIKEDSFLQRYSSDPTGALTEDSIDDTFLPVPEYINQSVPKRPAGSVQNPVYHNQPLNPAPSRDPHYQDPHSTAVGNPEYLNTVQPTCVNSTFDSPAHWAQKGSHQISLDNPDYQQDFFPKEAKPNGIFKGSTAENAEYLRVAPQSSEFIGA
Chain of Epidermal growth factor receptor (Homo sapiens, UniProt P00533) (P00533 whole entry): as the sequence (P00533 whole entry, looked up, stated change not applied) above
Chain of Epidermal growth factor receptor (Homo sapiens, UniProt P00533, C797S/L858R/T790M) (P00533 25-1210 T790M/C797S/L858R limits assumed): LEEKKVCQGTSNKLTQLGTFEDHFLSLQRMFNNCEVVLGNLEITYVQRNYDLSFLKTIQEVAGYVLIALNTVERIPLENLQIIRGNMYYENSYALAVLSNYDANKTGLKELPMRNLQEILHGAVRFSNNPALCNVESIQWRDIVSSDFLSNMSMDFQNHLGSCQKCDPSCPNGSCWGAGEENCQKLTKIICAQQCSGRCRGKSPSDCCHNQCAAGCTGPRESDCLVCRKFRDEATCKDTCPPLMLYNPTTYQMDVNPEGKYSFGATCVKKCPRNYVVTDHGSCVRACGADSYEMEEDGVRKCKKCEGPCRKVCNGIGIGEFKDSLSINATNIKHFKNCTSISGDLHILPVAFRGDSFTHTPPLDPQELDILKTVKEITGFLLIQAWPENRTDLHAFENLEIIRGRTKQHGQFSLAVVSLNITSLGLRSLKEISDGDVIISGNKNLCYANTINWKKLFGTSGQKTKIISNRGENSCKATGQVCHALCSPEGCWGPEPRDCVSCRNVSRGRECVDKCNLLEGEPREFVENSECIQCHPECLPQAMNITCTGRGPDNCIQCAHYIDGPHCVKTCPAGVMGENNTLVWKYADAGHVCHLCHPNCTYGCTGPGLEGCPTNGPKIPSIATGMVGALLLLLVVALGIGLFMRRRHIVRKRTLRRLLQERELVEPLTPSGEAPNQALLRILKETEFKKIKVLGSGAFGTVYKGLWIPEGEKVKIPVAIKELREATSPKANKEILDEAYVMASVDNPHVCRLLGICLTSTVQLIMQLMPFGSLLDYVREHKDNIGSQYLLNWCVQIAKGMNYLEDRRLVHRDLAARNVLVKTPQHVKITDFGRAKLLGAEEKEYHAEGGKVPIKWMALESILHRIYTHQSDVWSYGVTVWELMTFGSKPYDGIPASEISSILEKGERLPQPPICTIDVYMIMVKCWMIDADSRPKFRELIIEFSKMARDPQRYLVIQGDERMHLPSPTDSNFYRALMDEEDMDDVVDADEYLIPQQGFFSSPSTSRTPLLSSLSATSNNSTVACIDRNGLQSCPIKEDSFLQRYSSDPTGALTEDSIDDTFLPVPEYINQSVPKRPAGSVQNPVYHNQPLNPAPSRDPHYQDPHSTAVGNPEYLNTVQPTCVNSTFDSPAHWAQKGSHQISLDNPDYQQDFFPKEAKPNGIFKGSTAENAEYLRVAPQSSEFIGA
Chain of von Hippel-Lindau disease tumor suppressor/Epidermal growth factor receptor (P00533 25-1210 L858R limits assumed, stated change not applied): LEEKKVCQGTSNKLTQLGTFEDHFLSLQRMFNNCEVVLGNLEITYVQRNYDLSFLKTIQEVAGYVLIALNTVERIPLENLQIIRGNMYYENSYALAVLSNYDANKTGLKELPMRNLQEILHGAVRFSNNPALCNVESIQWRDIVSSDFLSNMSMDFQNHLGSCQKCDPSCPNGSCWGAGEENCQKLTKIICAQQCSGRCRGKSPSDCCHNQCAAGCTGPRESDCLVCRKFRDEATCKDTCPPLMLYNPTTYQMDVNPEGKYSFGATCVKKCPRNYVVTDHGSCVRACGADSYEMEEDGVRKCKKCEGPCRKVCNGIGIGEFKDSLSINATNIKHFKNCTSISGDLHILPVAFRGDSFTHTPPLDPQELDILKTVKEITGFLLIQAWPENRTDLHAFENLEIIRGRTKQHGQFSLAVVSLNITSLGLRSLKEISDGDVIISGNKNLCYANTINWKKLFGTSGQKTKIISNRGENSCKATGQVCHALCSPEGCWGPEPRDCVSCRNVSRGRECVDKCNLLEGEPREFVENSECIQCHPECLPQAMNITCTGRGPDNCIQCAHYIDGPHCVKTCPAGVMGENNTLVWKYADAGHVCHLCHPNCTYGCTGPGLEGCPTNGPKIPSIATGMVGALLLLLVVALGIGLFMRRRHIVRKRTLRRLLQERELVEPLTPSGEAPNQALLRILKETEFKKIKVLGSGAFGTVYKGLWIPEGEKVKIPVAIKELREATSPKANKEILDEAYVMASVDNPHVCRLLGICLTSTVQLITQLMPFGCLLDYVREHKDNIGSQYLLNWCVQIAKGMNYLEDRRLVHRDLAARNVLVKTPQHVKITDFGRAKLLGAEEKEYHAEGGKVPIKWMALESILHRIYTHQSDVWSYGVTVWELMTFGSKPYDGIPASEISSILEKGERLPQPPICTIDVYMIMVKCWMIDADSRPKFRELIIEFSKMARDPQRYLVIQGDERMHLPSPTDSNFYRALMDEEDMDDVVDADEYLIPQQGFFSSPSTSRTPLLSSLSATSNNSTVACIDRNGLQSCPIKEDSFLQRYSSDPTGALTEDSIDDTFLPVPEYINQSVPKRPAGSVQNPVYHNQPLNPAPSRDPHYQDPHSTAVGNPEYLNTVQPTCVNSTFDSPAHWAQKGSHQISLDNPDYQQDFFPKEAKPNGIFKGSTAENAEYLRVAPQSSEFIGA
Chain of von Hippel-Lindau disease tumor suppressor/Epidermal growth factor receptor (P40337 whole entry, stated change not applied): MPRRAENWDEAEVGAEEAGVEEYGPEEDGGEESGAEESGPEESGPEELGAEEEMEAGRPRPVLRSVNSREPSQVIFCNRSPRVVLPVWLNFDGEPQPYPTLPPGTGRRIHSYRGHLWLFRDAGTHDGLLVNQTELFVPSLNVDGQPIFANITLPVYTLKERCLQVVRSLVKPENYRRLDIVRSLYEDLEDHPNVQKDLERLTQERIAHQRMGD

For orientation: IC50 means the midpoint of a concentration-inhibition curve. In data set [1], `O=C(Nc1nccs1)C(c1cc(F)ccc1O)N1Cc2ccccc2C1=O` (centres undefined) had an IC50 of 3 nM.
For the compound `COc1cc2c(Nc3ccc(NC(=O)C(c4cc(F)ccc4F)N4Cc5ccccc5C4=O)cc3F)ncnc2cc1OCC1CCN(C)CC1` (centres undefined), the IC50 in data set [2] came out at 2.3 nM.
Take `O=C1CCC(N2C(=O)c3cccc(NCCOCCOCCOCCN4CCN(c5ccc(-c6ccc7c(c6)C(=O)N(C(C(=O)Nc6nccs6)c6ccccc6)C7)cn5)CC4)c3C2=O)C(=O)N1` (centres undefined): the IC50 in [3] came out at 96 nM.
In general, DC50 refers to the midpoint of the concentration-degradation curve. As for `COc1cc2ncnc(Nc3ccc(F)c(Cl)c3)c2cc1OCCCN1CCN(CCC(=O)NCCCCCCCCOc2cccc3c2C(=O)N(C2CCC(=O)NC2=O)C3=O)CC1` (centres undefined), in [4], the 50% degradation concentration (DC50) worked out at 5 nM.
Regarding `COc1cc(N2CCN(CCCCCCCC(=O)N[C@H](C(=O)N3C[C@H](O)C[C@H]3C(=O)N[C@@H](C)c3ccc(-c4scnc4C)cc3)C(C)(C)C)CC2)ccc1Nc1ncc(Cl)c(Nc2ccccc2P(C)(C)=O)n1`, the DC50 in data set [5] turned out to be 8 nM.
With `COc1cc(N2CCC(N3CCN(C)CC3)CC2)c(C)cc1Nc1ncc(Br)c(Nc2ccc3nccnc3c2P(C)(C)=O)n1`, the IC50 in [6] was found to be 26.8 nM.
For orientation: bioavailability means dose-corrected exposure relative to a reference, in per cent. Read a high bioavailability as much systemic uptake. For `CC(C)c1cnc(N2CC(CS(C)(=O)=O)C2)c2cnc(Nc3ccnc(N4CC[C@@H](O)[C@@](C)(F)C4)n3)cc12`, in data set [7], the bioavailability worked out at 2%. Also, the IC50 in data set [8] is 4.8 nM.
On to `N#Cc1ccc(O)c(-c2nc(NCc3ncccn3)c3ccccc3n2)c1`, for which the IC50 in [9] was 1.2 µM.
In turn, `CC(C)c1ccc(N2C[C@H](CS(C)(=O)=O)[C@H]2C)c2cnc(Nc3ccnc(N4CC[C@@H](O)[C@@](C)(F)C4)n3)cc12` displayed a bioavailability in data set [7] of 50%. The IC50 in data set [8] was 1 nM. The CLint in data set [10] is 41 µL/min/1e6 cells; in [11], 43 µL/min/mg; in data set [12], 7.2 µL/min/mg.
In data set [1], `CN1CCC(c2ccc(-c3ccc4c(c3)C(=O)N(C(C(=O)Nc3nccs3)c3cc(F)ccc3O)C4)cc2)CC1` (centres undefined) gave an IC50 of 0.063 nM.
`CC(C)c1ccc(N2CC(CS(C)(=O)=O)C2)c2cnc(Nc3ccnc(N4CC[C@@H](O)[C@@](C)(F)C4)n3)cc12` showed a bioavailability in data set [7] of 85%. Besides, in [8], the 50% inhibitory concentration (IC50) was found to be 2.7 nM.
`CN1CCN(c2ccc(Nc3ncc(Cl)c(Nc4ccccc4P(C)(C)=O)n3)cc2Br)CC1`: the values for the half-inhibitory concentration (IC50) in data set [6] and in data set [13] were 90 nM and 120 nM, respectively.
Turning to `Oc1ccccc1-c1nc(NCN2CCOCC2)c2ccccc2n1`, the values for the IC50 in data set [14] and in [15] were 37.1 µM and 1730 nM, respectively.
For the compound `Oc1ccccc1-c1nc(NCc2c[nH]cn2)c2ccccc2n1`, the results for the IC50 in [14] and in data set [15] were above 50 µM and 4.84 nM, respectively.
Regarding `Cn1cnc(Nc2nc(-c3ccccc3O)nc3ccccc23)c1`, the IC50 was above 50 µM in data set [14] and 3.38 nM in [15].
As for `[2H]C([2H])([2H])c1cc(Nc2ncc(Br)c(Nc3ccccc3S(=O)(=O)C3CC3)n2)ccc1N1CCN(C([2H])([2H])[2H])CC1`, the inhibition in vivo at 40 mg/kg in [16] worked out at 75.1%. The IC50 is 0.09 nM in [2], 12 nM in data set [6] and 16 nM in data set [13].
Turning to `Oc1ccc(Br)cc1-c1nc(NCc2ncccn2)c2ccccc2n1`, the IC50 in data set [9] worked out at 12.6 µM; in data set [2], 440 nM.
Consider `Cc1cc(Nc2ncc(Br)c(Nc3ccccc3S(=O)(=O)C3CC3)n2)ccc1N1CCN(C)CC1`, for which the inhibition in vivo at 80 mg/kg in data set [17] stood at 73.2%.
In [7], `CO[C@@H]1CCN(c2nccc(Nc3cc4c(C(C)C)ccc(N5C[C@H](CS(C)(=O)=O)[C@H]5C)c4cn3)n2)C[C@@H]1F` [TIGOZERTINIB] had a bioavailability of 48%. Moreover, the half-maximal inhibitory concentration (IC50) in data set [8] turned out to be 1.1 nM.

Source of the values: ChEMBL document CHEMBL6074632, “Next-generation EGFR tyrosine kinase inhibitors to overcome C797S mutation in non-small cell lung cancer (2019-2024)” (RSC Med Chem, 2024).
